Results from US12691112B2, “FGFR tyrosine kinase inhibitors for the treatment of urothelial carcinoma” (Janssen Pharmaceutica NV, priority 2019, dated 2026).

What was measured:
[1] = test system: metastatic or surgically unresectable urothelial cancer harboring select FGFR genetic alterations; test: Phase 2 study NCT02365597: progression-free survival (Kaplan-Meier), investigator assessment; assay type: in vivo, human
Procedure: The term “progression-free survival” is defined as the time from first dose to date of documented evidence of disease progression or death, whichever comes first.
(§1) Patients were contacted every 12 weeks for survival assessment.
(§2) The study was designed to enroll 180 patients with specified FGFR alterations. Of these, ≥88 were required in the selected regimen. […] Responses were assessed by investigators and an independent radiological review committee. Progression-free survival and overall survival were estimated using Kaplan-Meier product limit method. Data from patients who were progression free and alive or with unknown status were censored at last tumor assessment. Efficacy end points were analysed at primary analysis cut-off.

[2] = test system: metastatic or surgically unresectable urothelial cancer harboring select FGFR genetic alterations; test: Phase 2 study NCT02365597: overall survival (Kaplan-Meier); assay type: in vivo, human
Procedure: The term “overall survival” is defined as the time from first dose to the date of death. Data for patients who are alive or have unknown status is censored at the last date on which the patient is known to be alive.
as §1, §2

serum phosphate = test: Pharmacodynamics: serum phosphate; assay type: in vivo, human; details: consequence of FGFR inhibition
From the text: To manage phosphate elevation, phosphate binders were permitted. Avoid concomitant use with agents that can alter serum phosphate levels before the initial dose increase period based on serum phosphate levels.

[3] = Effect of food on pharmacokinetics in healthy subjects; assay type: in vivo, human; details: high-fat and high-calorie meal
QTc interval = details: 187 patients with cancer
[4] = FGFR fusions (excluding mutations), 6 mg QD
[5] = FGFR fusions (excluding mutations), 8 mg QD
[6] = FGFR fusions (excluding mutations), 10 mg 7 on/7 off
[7] = FGFR fusions (excluding mutations), Total
[8] = FGFR mutations (excluding fusions), 6 mg QD
[9] = FGFR mutations (excluding fusions), 8 mg QD
[10] = FGFR mutations (excluding fusions), 10 mg 7 on/7 off
[11] = FGFR mutations (excluding fusions), Total
[12] = FGFR mutations and fusions, 6 mg QD
[13] = FGFR mutations and fusions, 10 mg 7 on/7 off
[14] = FGFR mutations and fusions, Total

## COc1cc(OC)cc(N(CCNC(C)C)c2ccc3ncc(-c4cnn(C)c4)nc3c2)c1 [erdafitinib, N-(3,5-dimethoxy-phenyl)-N′-(1-methylethyl)-N-[3-(1-methyl-1H-pyrazol-4-yl)quinoxalin-6-yl]ethane-1,2-diamine]
[1]; [4]
  6-month progression-free survival rate (95% CI): 0.40 (0.12, 0.67)
  12-month progression-free survival rate (95% CI): 0.20 (0.03, 0.47)
  18-month progression-free survival rate (95% CI): 0.10 (0.01, 0.36)
  Progression-free survival, Median (95% CI): 5.54 (0.46, 11.10) months
  Progression-free survival, Q1: 4.50 months
[1]; [5]
  6-month progression-free survival rate (95% CI): 0.25 (0.10, 0.44)
  12-month progression-free survival rate (95% CI): 0.15 (0.04, 0.33)
  18-month progression-free survival rate (95% CI): 0 (NE, NE)
  Progression-free survival, Median (95% CI): 2.76 (1.51, 5.45) months
  Progression-free survival, Q1: 1.35 months
  Progression-free survival, Q3: 6.64 months
[1]; [6]
  6-month progression-free survival rate (95% CI): 0 (NE, NE)
  12-month progression-free survival rate (95% CI): 0 (NE, NE)
  18-month progression-free survival rate (95% CI): 0 (NE, NE)
  Progression-free survival, Median (95% CI): 2.09 (1.41, 2.76) months
  Progression-free survival, Q1: 1.41 months
  Progression-free survival, Q3: 2.76 months
[1]; [7]
  6-month progression-free survival rate (95% CI): 0.28 (0.15, 0.44)
  12-month progression-free survival rate (95% CI): 0.15 (0.05, 0.29)
  18-month progression-free survival rate (95% CI): 0.05 (0.00, 0.19)
  Progression-free survival, Median (95% CI): 4.27 (2.56, 5.52) months
  Progression-free survival, Q1: 1.51 months
  Progression-free survival, Q3: 7.00 months
[1]; [8]
  6-month progression-free survival rate (95% CI): 0.22 (0.12, 0.33)
  12-month progression-free survival rate (95% CI): 0.07 (0.02, 0.16)
  18-month progression-free survival rate (95% CI): 0.05 (0.01, 0.14)
  Progression-free survival, Median (95% CI): 5.09 (2.83, 5.42) months
  Progression-free survival, Q1: 1.77 months
  Progression-free survival, Q3: 5.55 months
[1]; [9]
  6-month progression-free survival rate (95% CI): 0.41 (0.29, 0.53)
  12-month progression-free survival rate (95% CI): 0.15 (0.06, 0.27)
  Progression-free survival, Median (95% CI): 5.55 (4.83, 7.26) months
  Progression-free survival, Q1: 2.83 months
  Progression-free survival, Q3: 8.44 months
[1]; [10]
  6-month progression-free survival rate (95% CI): 0.25 (0.10, 0.43)
  12-month progression-free survival rate (95% CI): 0.17 (0.05, 0.34)
  18-month progression-free survival rate (95% CI): 0.08 (0.01, 0.23)
  Progression-free survival, Median (95% CI): 4.93 (2.73, 5.55) months
  Progression-free survival, Q1: 2.69 months
  Progression-free survival, Q3: 7.06 months
[1]; [11]
  6-month progression-free survival rate (95% CI): 0.31 (0.24, 0.39)
  12-month progression-free survival rate (95% CI): 0.12 (0.07, 0.19)
  18-month progression-free survival rate (95% CI): 0.06 (0.03, 0.12)
  Progression-free survival, Median (95% CI): 5.36 (4.21, 5.52) months
  Progression-free survival, Q1: 2.73 months
  Progression-free survival, Q3: 8.25 months
[1]; [12]
  6-month progression-free survival rate (95% CI): 0.50 (0.06, 0.84)
  12-month progression-free survival rate (95% CI): 0.50 (0.06, 0.84)
  Progression-free survival, Median (95% CI): 9.10 (0.39, NE) months
  Progression-free survival, Q1: 2.97, NE months
[1]; [13]
  6-month progression-free survival rate (95% CI): 0 (NE, NE)
  12-month progression-free survival rate (95% CI): 0 (NE, NE)
  18-month progression-free survival rate (95% CI): 0 (NE, NE)
  Progression-free survival, Median (95% CI): 5.45 (1.45, 5.52) months
  Progression-free survival, Q1: 1.45 months
  Progression-free survival, Q3: 5.52 months
[1]; [14]
  6-month progression-free survival rate (95% CI): 0.29 (0.04, 0.61)
  12-month progression-free survival rate (95% CI): 0.29 (0.04, 0.61)
  Progression-free survival, Median (95% CI): 5.52 (0.39, 12.65) months
  Progression-free survival, Q1: 1.45 months
  Progression-free survival, Q3: 12.65 months
[1]; Regimen 1, 10 mg intermittent
  Median (95% CI) progression-free survival per investigator assessment: 4.8 (2.7 to 5.5) months
  Progression-free survival rate at 12 months: 18%
[1]; Regimen 2, 6 mg continuous
  Median (95% CI) progression-free survival per investigator assessment: 5.3 (4.1 to 5.5) months
  Progression-free survival rate at 12 months: 11%
[1]; Regimen 3, 8 mg continuous
  Progression-free survival rate at 12 months: 19%
  median progression-free survival: 5.5 months
[2]; [4]
  6-month overall survival rate (95% CI): 0.80 (0.41, 0.95)
  12-month overall survival rate (95% CI): 0.46 (0.14, 0.73)
  18-month overall survival rate (95% CI): 0.46 (0.14, 0.73)
  Overall survival, Median (95% CI): 9.33 (0.46, NE) months
  Overall survival, Q1: 7.92 months
  Overall survival, Q3: 18.96 months
[2]; [5]
  6-month overall survival rate (95% CI): 0.77 (0.54, 0.90)
  12-month overall survival rate (95% CI): 0.46 (0.24, 0.66)
  Overall survival, Median (95% CI): 10.32 (6.05, NE) months
  Overall survival, Q1: 6.05 months
  Overall survival, Q3: 14.03 months
[2]; [6]
  6-month overall survival rate (95% CI): 1.00 (1.00, 1.00)
  12-month overall survival rate (95% CI): 0.50 (0.01, 0.91)
  18-month overall survival rate (95% CI): 0 (NE, NE)
  24-month overall survival rate (95% CI): 0 (NE, NE)
  Overall survival, Median (95% CI): 10.37 (7.72, 13.01) months
  Overall survival, Q1: 7.72 months
  Overall survival, Q3: 13.01 months
[2]; [7]
  6-month overall survival rate (95% CI): 0.80 (0.62, 0.90)
  12-month overall survival rate (95% CI): 0.46 (0.28, 0.62)
  18-month overall survival rate (95% CI): 0.31 (0.12, 0.52)
  Overall survival, Median (95% CI): 9.33 (7.72, 18.96) months
  Overall survival, Q1: 6.97 months
  Overall survival, Q3: 18.96 months
[2]; [8]
  6-month overall survival rate (95% CI): 0.68 (0.54, 0.79)
  12-month overall survival rate (95% CI): 0.30 (0.18, 0.43)
  18-month overall survival rate (95% CI): 0.21 (0.11, 0.33)
  Overall survival, Median (95% CI): 8.31 (6.41, 9.63) months
  Overall survival, Q1: 5.13 months
  Overall survival, Q3: 14.82 months
[2]; [9]
  6-month overall survival rate (95% CI): 0.74 (0.61, 0.83)
  12-month overall survival rate (95% CI): 0.54 (0.38, 0.68)
  Overall survival, Median (95% CI): 12.02 (8.64, NE) months
  Overall survival, Q1: 5.98, NE months
[2]; [10]
  6-month overall survival rate (95% CI): 0.70 (0.47, 0.84)
  12-month overall survival rate (95% CI): 0.31 (0.14, 0.50)
  18-month overall survival rate (95% CI): 0.26 (0.11, 0.45)
  24-month overall survival rate (95% CI): 0.22 (0.08, 0.40)
  Overall survival, Median (95% CI): 7.39 (5.78, 10.71) months
  Overall survival, Q1: 5.55 months
  Overall survival, Q3: 18.76 months
[2]; [11]
  6-month overall survival rate (95% CI): 0.71 (0.63, 0.78)
  12-month overall survival rate (95% CI): 0.39 (0.30, 0.48)
  18-month overall survival rate (95% CI): 0.29 (0.20, 0.39)
  24-month overall survival rate (95% CI): 0.24 (0.15, 0.35)
  Overall survival, Median (95% CI): 9.10 (7.46, 11.86) months
  Overall survival, Q1: 5.49 months
  Overall survival, Q3: 18.76 months
[2]; [12]
  6-month overall survival rate (95% CI): 0.75 (0.13, 0.96)
  12-month overall survival rate (95% CI): 0.75 (0.13, 0.96)
  18-month overall survival rate (95% CI): 0.38 (0.01, 0.81)
  Overall survival, Median (95% CI): 12.65 (0.39, NE) months
  Overall survival, Q1: 6.52, NE months
[2]; [13]
  6-month overall survival rate (95% CI): 0.67 (0.05, 0.95)
  12-month overall survival rate (95% CI): 0 (NE, NE)
  18-month overall survival rate (95% CI): 0 (NE, NE)
  24-month overall survival rate (95% CI): 0 (NE, NE)
  Overall survival, Median (95% CI): 6.21 (3.98, 9.10) months
  Overall survival, Q1: 3.98 months
  Overall survival, Q3: 9.10 months
[2]; [14]
  6-month overall survival rate (95% CI): 0.71 (0.26, 0.92)
  12-month overall survival rate (95% CI): 0.43 (0.10, 0.73)
  18-month overall survival rate (95% CI): 0.21 (0.01, 0.59)
  Overall survival, Median (95% CI): 9.10 (0.39, NE) months
  Overall survival, Q1: 3.98 months
  Overall survival, Q3: 12.65 months
[2]; Regimen 1, 10 mg intermittent
  Median overall survival (95% CI): 7.5 (6.0 to 10.7) months
  overall survival rate at 12 months: 31%
[2]; Regimen 2, 6 mg continuous
  Median overall survival (95% CI): 8.6 (6.5 to 9.7) months
  overall survival rate at 12 months: 33%
[2]; Regimen 3, 8 mg continuous
  Survival rate at 12 months: 55%
  median overall survival: 13.8 months
Serum phosphate
  effect on serum phosphate level: increased serum phosphate level
[3]
  effect of food on pharmacokinetics: No clinically meaningful differences
QTc interval
  effect on the QTc interval: no large effect (i.e., >20 ms)
